# Measurements reported in patent US12624039B2, “BTK inhibitors” (DIZAL (JIANGSU) PHARMACEUTICAL CO., LTD., priority 2020, dated 2026).
# pIC50: −log10 of the molar value. Like-named read-outs stand apart in the source and are kept apart here.
# Assays:
# [1] = molecular target: T1, Recombinant BTK wild type (BTK WT) (Homo sapiens, UniProt Q06187); assay: BTK WT HTRF kinase assay; assay type: biochemical; conditions: 30 min pre-incubation, 120 min reaction
# T1 construct: purchased Thermo fisher
# Experimental: (§1) Recombinant BTK wild type (BTK WT) was purchased from Thermo fisher.
# (§2) In brief, recombinant kinases were pre-incubated in the presence or absence of compound at room temperature for 30 minutes. The reaction was initiated by the addition of the ATP and substrate peptide which could be phosphorylated by kinases in the reaction. After 120 minutes incubation, the reaction was stopped by the addition of the detection reagent mix containing EDTA.
# [2] = molecular target: T2, Recombinant BTK(C481S) (Homo sapiens, UniProt Q06187, C481S); assay: BTK C481S HTRF kinase assay; assay type: biochemical; conditions: 30 min pre-incubation, 120 min reaction
# T2 construct: purchased SignalChem
# Experimental: [The procedure below names another variant; the source lists this variant under the same test.] as §1, §2
# [3] = molecular target: T3, p-BTK (Phospho-Btk Tyr223) in TMD-8 cells (Homo sapiens, UniProt Q06187); assay: TMD8 cell line p-BTK Elisa assay; assay type: cell-based; conditions: for Maximal Inhibition Level: p-BTK ELISA; for pIC50: pervanadate 100 μM, Tyr223 ELISA
# T3 construct: endogenous in cells; host or cells: TMD-8
# Experimental: The test compounds were added to the cells and cells were incubated for 0.5 hour at 37° C., 5% CO2. Then pervanadate solution was added to the cells to make a final concentration of 100 μM, and cells were incubated for a further 1 hour at 37° C., 5% CO2. […] The plate was read on a Multiscan Spectrum reader set to 450 nm wavelengths.
# [4] = In vitro rat hepatocytes clearance assay; assay type: in vitro ADME
# Experimental: (§3) In Vitro Rat/Human Hepatocytes Clearance Assay
# (§4) Rat hepatocytes in male gender and human hepatocytes in mixed gender were obtained from commercial vendors (e.g., BioreclamationIVT) and stored at −150° C. prior to use. 10 mM stock solutions of tested compounds were prepared in DMSO. Thawing medium and supplement incubation medium (serum-free) were placed in a 37° C. water bath for at least 15 minutes prior to use. Stock solutions were diluted to 100 μM by combining 198 μL acetonitrile and 2 μL of 10 mM stock solution.
# (§5) Vials of cryopreserved hepatocytes were removed from storage, ensured that vials remain at cryogenic temperatures. The vials were thawed in a 37° C. water bath with gently shaking. Vials were kept in a water bath until all ice crystals had dissolved and were no longer visible. Vials were sprayed with 70% ethanol before being transferred to a biosafety cabinet. And then the contents were poured into the 50 mL thawing medium conical tube. Vials were centrifuged at 100 g for 10 minutes at room temperature. Thawing medium was aspirated and hepatocytes were resuspended with serum-free incubation medium to yield ^˜1.5×10^6 cells/mL.
# (§6) Cell viability and density were counted using a Trypan Blue exclusion, and then cells were diluted with serum-free incubation medium to a working cell density of 1×10^6 viable cells/ml. A portion of the hepatocytes at 1×10^6 viable cells/mL was boiled for 10 min prior to adding to the plate as negative control to eliminate the enzymatic activity so that little or no substrate turnover should be observed. The inactivated hepatocytes were used to prepare negative samples, which were used to exclude the misleading factor that resulted from instability of chemical itself.
# (§7) Aliquots of 247.5 μL hepatocytes were dispensed into each well of a 96-well non-coated plate. The plate was placed in the incubator on an orbital shaker for approximately 10 minutes. Aliquots of 2.5 μL of the 100 μM test compounds were added into respective wells of the non-coated 96-well plate to start the reaction. This assay was performed in duplicate. The plate was incubated in the incubator on an orbital shaker for the designed time points. 20 μL of contents were transferred and mixed with 6 volumes (120 μL) of cold acetonitrile with internal standard to terminate the reaction at time points of 5, 15, 30, 45, 60, 80 and 100 minutes. Samples were centrifuges for 20 minutes at 4000 g and aliquots of 100 μl of the supernatants were used for LC-MS/MS analysis for measurement of test compounds.
# (§8) In vitro hepatocyte clearance was estimated based on determination of elimination half-life (T1/2) of compounds disappearance from their initial concentrations. Peak area ratios of each compound (test or control) to IS was calculated. Ln (% Control) versus Incubation Time (min) curve was plotted, and the slope of a linear fitting line was calculated. Drug elimination rate constant k (min-1), T1/2 (min), and in vitro intrinsic clearance CLint (μL/min/E6) was calculated according to the following equations: k=−slope T1/2=0.693/k CLint=k/Chep • Where Chep (cells×μL-1) is the cell concentration in the incubation system. Procedure for Log D Determination
# [5] = In vitro human hepatocytes clearance assay; assay type: in vitro ADME
# Experimental: as §3, §4, §5, §6, §7, §8
# [6] = Log D determination (octanol/phosphate buffer); assay type: physicochemical; conditions: 25° C.
# Experimental: 10 μL of working solution of each cassette is placed in order into respective 96-well rack position (Log D plate). Add 500 μL of saturated octanol into each vial of the above cap-less Log D plate followed by the addition of 500 μL of saturated phosphate buffer. Seal with a moulded PTFE/SIL 96-Well Plate Cover.
# The samples are centrifuged at 4,000 rpm at 25° C. for 30 minutes to separate the phases. Pipette and syringe are used to pipette about 100 μL from the octanol and buffer phases to a new 96-well plate, respectively.
# 5 μL of octanol sample is transferred to a new 96-well plate, followed by addition of 495 μL of a mixture of H2O and acetonitrile containing internal standard (1:1) as 100 fold octanol samples. Vortex for 5 minutes at 1,000 rpm.
# 50 μL of 100 fold samples are transferred to new 96-well plate, followed by addition of 450 μL of a mixture of H2O and acetonitrile containing internal standard (1:1) as 1,000 fold octanol samples. Vortex for 5 minutes at 1,000 rpm.
# The 1,000 folds octanol samples are serially diluted into 10,000, 100,000 and 1,000,000 folds with a mixture of H2O and acetonitrile containing internal standard (1:1).
# 50 μL of buffer samples are transferred to new 96-well plate, followed by addition of 450 μL of a mixture of H2O and acetonitrile containing internal standard (1:1) as 10 folds buffer samples. Vortex for 5 minutes at 1,000 rpm.
# The 10 folds buffer samples are serially diluted into 100, 1,000 and 10,000 folds with a mixture of H2O and acetonitrile containing internal standard (1:1). The samples are evaluated by LC/MS/MS analysis. All compounds are tested in singlicate.
# All calculations are carried out using Microsoft Excel. The concentrations of test compound in octanol/buffer solution are evaluated by LC/MS/MS. Calculate the Log D value of the test compound as follows:
# [formula] DF means the dilution factor. Procedure for Protein Binding Measurements in Human Plasma by Using Equilibrium Dialysis
# [7] = Hu Mic Clint; assay type: in vitro ADME, human; conditions: for microsomal CLint: human, microsomes
# [8] = DMSO solubility; assay type: physicochemical
# T2 sequence (Q06187 whole entry C481S): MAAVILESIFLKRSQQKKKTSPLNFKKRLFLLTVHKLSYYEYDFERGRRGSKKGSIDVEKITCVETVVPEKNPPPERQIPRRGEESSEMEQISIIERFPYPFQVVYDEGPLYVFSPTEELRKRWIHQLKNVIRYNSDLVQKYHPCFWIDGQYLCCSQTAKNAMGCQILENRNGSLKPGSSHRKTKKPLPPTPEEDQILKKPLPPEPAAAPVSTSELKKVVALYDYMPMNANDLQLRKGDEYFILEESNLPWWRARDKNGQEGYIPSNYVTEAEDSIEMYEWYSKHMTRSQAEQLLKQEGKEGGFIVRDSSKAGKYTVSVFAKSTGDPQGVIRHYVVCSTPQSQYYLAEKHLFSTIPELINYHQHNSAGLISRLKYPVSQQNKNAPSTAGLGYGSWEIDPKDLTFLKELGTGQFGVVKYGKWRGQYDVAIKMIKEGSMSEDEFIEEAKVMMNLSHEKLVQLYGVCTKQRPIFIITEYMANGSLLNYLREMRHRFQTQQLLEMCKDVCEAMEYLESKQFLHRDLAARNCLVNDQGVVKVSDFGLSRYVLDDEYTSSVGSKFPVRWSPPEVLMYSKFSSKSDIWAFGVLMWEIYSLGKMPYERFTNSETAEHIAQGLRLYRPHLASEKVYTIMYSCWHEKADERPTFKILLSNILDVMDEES
# T3 sequence (Q06187 whole entry): as the sequence (Q06187 whole entry C481S) above, with S481C counted along it
# T1 sequence (Q06187 whole entry): as the sequence (Q06187 whole entry C481S) above, with S481C counted along it
Compound,pIC50 [1],pIC50 [2],Maximal Inhibition Level [3] [%],pIC50 [3],Rat Hep Clint [4] [μL/min/10∧6 cells],Human Hep Clint [5] [μL/min/10∧6 cells],logD [6],Hu Mic Clint [7] [µL/min/mg],solubility [8] [µM],logD at 2 h [6],microsomal CLint [7] [µL/min/mg],solubility ([8]; kinetic from dmso stock) [µM]
"Nc1ncnn2c(C3CCC(CO)OC3)nc(-c3ccc(Oc4ccccc4)cc3F)c12 (single isomer, unassigned) [Compound 9, (5-(4-amino-5-(2-fluoro-4-phenoxyphenyl)imidazo[1,5-a][1,2,4]triazin-7-yl)tetrahydro-2H-pyran-2-yl)methanol]",8.06,8.19,107.7,6.91,27.2,5.9,3.00,34.3,20.3,,,
"Nc1ncnn2c(C3CCC(CO)OC3)nc(-c3ccc(Oc4ccccc4)c(F)c3F)c12 (stereo not drawn) [Compound 12, (5-(4-amino-5-(2,3-difluoro-4-phenoxyphenyl)imidazo[1,5-f][1,2,4]triazin-7-yl)tetrahydro-2H-pyran-2-yl)methanol]",9.57,9.57,97.0,7.63,46.8,2.0,,,45.7,3.18,< 3,
"Nc1ncnn2c(C3CCC(CO)OC3)nc(-c3ccc(Oc4ccccc4)cc3F)c12 (single isomer, unassigned) [Compound 10, Trans-(5-(4-amino-5-(2-fluoro-4-phenoxyphenyl)imidazo[5,1-f][1,2,4]triazin-7-yl)tetrahydro-2H-pyran-2-yl)methanol]",9.05,9.02,98.5,7.54,17.1,1.7,3.07,7.0,20.5,,,
"Nc1nccn2c(C3CCC(CO)OC3)nc(-c3ccc(Oc4ccccc4)c(F)c3F)c12 (single isomer, unassigned) [Compound 4, (5-(8-amino-1-(2,3-difluoro-4-phenoxyphenyl)imidazo[1,5-a]pyrazin-3-yl)tetrahydro-2H-pyran-2-yl)methanol]",9.31,9.21,97.4,7.51,7.2,5.6,,,,3.1,7.44,63.1
"Nc1nccn2c(C3CCC(CO)OC3)nc(-c3ccc(Oc4ccccc4)c(F)c3F)c12 (single isomer, unassigned) [Compound 5, (5-(8-amino-1-(2,3-difluoro-4-phenoxyphenyl)imidazo[1,5-a]pyrazin-3-yl)tetrahydro-2H-pyran-2-yl)methanol]",8.31,8.27,95.8,7.31,9.0,9.0,2.89,13.0,61.9,,,
"Nc1ncnn2c(C3CCC(CO)OC3)nc(-c3ccc(Oc4ccccc4)cc3F)c12 (single isomer, unassigned) [Compound 8, (5-(4-amino-5-(2-fluoro-4-phenoxyphenyl)imidazo[5,1-f][1,2,4]triazin-7-yl)tetrahydro-2H-pyran-2-yl)methanol]",8.46,8.55,100.9,7.38,48.5,6.1,,41.3,21.0,3.1,,

# Second part, the compound after the results:
pIC50 [1],pIC50 [2],Maximal Inhibition Level [3] [%],pIC50 [3],Rat Hep Clint [4] [μL/min/10∧6 cells],Human Hep Clint [5] [μL/min/10∧6 cells],logD [6],Hu Mic Clint [7] [µL/min/mg],solubility [8] [µM],logD at 2 h [6],microsomal CLint [7] [µL/min/mg],solubility ([8]; kinetic from dmso stock) [µM],Compound
9.22,9.18,98.4,7.54,6.1,4.6,,,15.1,3.01,12.7,,"Nc1nccn2c(C3CCC(CO)OC3)nc(-c3ccc(Oc4ccccc4)cc3F)c12 (single isomer, unassigned) [Compound 2, Trans-(5-(8-amino-1-(2-fluoro-4-phenoxyphenyl)imidazo[1,5-a]pyrazin-3-yl)tetrahydro-2H-pyran-2-yl)methanol]"
8.80,8.82,97.9,6.86,4.9,3.3,3.19,13.3,45.8,,,,"Nc1nccn2c(C3CCC(CO)OC3)nc(-c3ccc(Oc4cccc(F)c4F)cc3)c12 (single isomer, unassigned) [Compound 7, (5-(8-amino-1-(4-(2,3-difluorophenoxy)phenyl)imidazo[1,5-a]pyrazin-3-yl)tetrahydro-2H-pyran-2-yl)methanol]"
8.94,8.97,97.9,7.72,12.4,28.9,,,,3.14,44.9,51.3,"Nc1nccn2c(C3CCC(CO)OC3)nc(-c3ccc(Oc4ccccc4)cc3)c12 (stereo not drawn) [Compound 1, (5-(8-amino-1-(4-phenoxyphenyl)imidazo[1,5-a]pyrazin-3-yl)tetrahydro-2H-pyran-2-yl)methanol]"
